According to ChEMBL document CHEMBL1201862, “PubChem BioAssay data set” (2004):
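Tested at 5 concentrations; 48 h exposure; 96-well plates; endpoints linearly interpolated, else capped at highest concentration. GI50 is the concentration that inhibits growth by half.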 Activity calls are given as the source filed them. Cut-off read from the data, not from the text of the source: active = GI50 up to about 1.1 µM and inactive = higher.

Assays:
Assay in all cases: growth of human tumour cells (NCI), 48 h
A498 = test system: A498
K562 = test system: K562
ACHN = test system: ACHN
NCI-H23 = test system: NCI-H23
OVCAR-3 = test system: OVCAR-3
CCRF-CEM = test system: CCRF-CEM
SR = test system: SR
MOLT-4 = test system: MOLT-4
NCI-H460 = test system: NCI-H460
HOP-92 = test system: HOP-92
LOX IMVI = test system: LOX IMVI
OVCAR-4 = test system: OVCAR-4
UACC-257 = test system: UACC-257
786-0 = test system: 786-0
HOP-62 = test system: HOP-62
EKVX = test system: EKVX
COLO 205 = test system: COLO 205
Malme-3M = test system: Malme-3M

Structure (SMILES)	GI50 (A498)	GI50 (K562)	GI50 (ACHN)	GI50 (NCI-H23)	GI50 (OVCAR-3)	GI50 (CCRF-CEM)	GI50 (SR)	GI50 (MOLT-4)	GI50 (NCI-H460)	GI50 (HOP-92)	GI50 (LOX IMVI)	GI50 (OVCAR-4)	GI50 (UACC-257)	GI50 (786-0)	GI50 (HOP-62)	GI50 (EKVX)	GI50 (COLO 205)	GI50 (Malme-3M)
O=C(CN(Cc1ccccc1)Cc1ccccc1)N1CCc2c([nH]c3ccccc23)C1c1cccnc1 (configuration not stated)	16.7 µM (inactive)	3.17 µM (inactive)	7.64 µM (inactive)	5.41 µM (inactive)	5.82 µM (inactive)	4.11 µM (inactive)	5.28 µM (inactive)	2.26 µM (inactive)	5.58 µM (inactive)	2.79 µM (inactive)	7.73 µM (inactive)	3.99 µM (inactive)	13.2 µM (inactive)	5.87 µM (inactive)	39 µM (inactive)	7.71 µM (inactive)		
CC(C)C(/C=C/c1ccccc1)=N\NC(=O)N/N=C(/C=C/c1ccccc1)C(C)C		21.2 µM (inactive)	26.9 µM (inactive)	53.7 µM (inactive)		28.2 µM (inactive)	20.8 µM (inactive)	16.4 µM (inactive)	14.4 µM (inactive)	20.7 µM (inactive)	32.4 µM (inactive)	35 µM (inactive)	44 µM (inactive)	18.9 µM (inactive)	40.6 µM (inactive)	8.36 µM (inactive)	18.4 µM (inactive)	
Cc1ccc(S(=O)(=O)N[C@H](C(=O)O)c2ccccc2)cc1	> 100 µM (inactive)	> 100 µM (inactive)	> 100 µM (inactive)	> 100 µM (inactive)	> 100 µM (inactive)	> 100 µM (inactive)		58.6 µM (inactive)	> 100 µM (inactive)	> 100 µM (inactive)	> 100 µM (inactive)	> 100 µM (inactive)	> 100 µM (inactive)	> 100 µM (inactive)		> 100 µM (inactive)	> 100 µM (inactive)	> 100 µM (inactive)
N#CCCc1nc2ccc(Br)cc2c(=O)n1CCO		> 100 µM (inactive)		> 100 µM (inactive)	> 100 µM (inactive)	> 100 µM (inactive)		> 100 µM (inactive)		> 100 µM (inactive)	> 100 µM (inactive)	> 100 µM (inactive)	> 100 µM (inactive)	> 100 µM (inactive)	> 100 µM (inactive)	> 100 µM (inactive)	> 100 µM (inactive)	> 100 µM (inactive)
Cc1cc(C(=O)NCCN(C)C)c2nc3ccccc3nc2c1	3.92 µM (inactive)	2.05 µM (inactive)	2.22 µM (inactive)	5.27 µM (inactive)	5.71 µM (inactive)		0.453 µM (active)	0.128 µM (active)		1.06 µM (active)	2.22 µM (inactive)	4.75 µM (inactive)	4.16 µM (inactive)	7.8 µM (inactive)	2.17 µM (inactive)	8.26 µM (inactive)	3.08 µM (inactive)	3.21 µM (inactive)
N/N=C1\C(=O)N(Cc2ccccc2)C(=O)C1C(=O)NCc1ccccc1 (configuration not stated)	> 100 µM (inactive)	> 100 µM (inactive)	> 100 µM (inactive)	> 100 µM (inactive)	> 100 µM (inactive)	> 100 µM (inactive)	> 100 µM (inactive)	> 100 µM (inactive)	> 100 µM (inactive)	> 100 µM (inactive)		> 100 µM (inactive)	> 100 µM (inactive)	> 100 µM (inactive)	> 100 µM (inactive)	> 100 µM (inactive)	> 100 µM (inactive)	> 100 µM (inactive)
COCC(=O)CP(=O)(OC)OC	> 100 µM (inactive)	> 100 µM (inactive)	> 100 µM (inactive)	> 100 µM (inactive)	> 100 µM (inactive)	> 100 µM (inactive)		> 100 µM (inactive)	> 100 µM (inactive)	> 100 µM (inactive)	> 100 µM (inactive)	> 100 µM (inactive)	> 100 µM (inactive)	> 100 µM (inactive)	> 100 µM (inactive)	> 100 µM (inactive)	> 100 µM (inactive)	> 100 µM (inactive)
Cc1cccc2c1Oc1ncccc1C2NC(=O)CN(C)C (configuration not stated)		> 10 µM (inactive)	> 10 µM (inactive)	> 10 µM (inactive)	> 10 µM (inactive)	> 10 µM (inactive)	> 10 µM (inactive)	> 10 µM (inactive)	> 10 µM (inactive)	3.77 µM (inactive)	> 10 µM (inactive)	> 10 µM (inactive)	> 10 µM (inactive)	> 10 µM (inactive)		> 10 µM (inactive)		> 10 µM (inactive)
COc1cc2c(cc1OC)[C@]1(O)C(=O)c3ccc4c(c3O[C@@H]1CO2)C[C@H](C(C)(C)O)O4	45.8 µM (inactive)	17.1 µM (inactive)	15.1 µM (inactive)	2.65 µM (inactive)	74.3 µM (inactive)	68.1 µM (inactive)		48.9 µM (inactive)	> 100 µM (inactive)	33.6 µM (inactive)	11.1 µM (inactive)		6.95 µM (inactive)	> 100 µM (inactive)	> 100 µM (inactive)	10.3 µM (inactive)	> 100 µM (inactive)	8.89 µM (inactive)
